target: CCR2 (Homo sapiens (Human), UniProt P41597); experiment: Calcium activity assayed on the FLIPR Tetra in HEK-Gqi5 cells stably expressing CCR2; assay type: cell-based; settings: FLIPR Tetra calcium assay
Sequence (P41597 whole entry, species assumed): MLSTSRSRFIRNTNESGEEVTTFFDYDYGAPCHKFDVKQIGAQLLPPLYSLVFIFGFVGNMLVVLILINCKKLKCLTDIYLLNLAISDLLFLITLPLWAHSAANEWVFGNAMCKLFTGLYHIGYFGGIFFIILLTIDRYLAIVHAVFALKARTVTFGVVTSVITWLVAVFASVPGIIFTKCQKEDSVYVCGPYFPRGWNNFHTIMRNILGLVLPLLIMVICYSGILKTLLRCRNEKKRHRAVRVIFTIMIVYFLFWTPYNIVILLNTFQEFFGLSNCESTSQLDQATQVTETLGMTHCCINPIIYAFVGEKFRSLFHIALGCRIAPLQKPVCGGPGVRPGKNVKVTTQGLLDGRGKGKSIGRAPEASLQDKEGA

Compound | CCR2 % ANTAGONISM [%] | IC50 [nM]
O=[N+]([O-])c1cccc(C[S+]([O-])c2ccccc2NS(=O)(=O)c2cc3ccccc3o2)c1 (stereo not shown) [N-{2-[(3-nitrobenzyl)sulfinyl]phenyl}-1-benzofuran-2-sulfonamide] | 97 | 653
O=[N+]([O-])c1cccc(CS(=O)(=O)c2ccccc2NS(=O)(=O)c2cc3ccccc3o2)c1 [N-{2-[(3-nitrobenzyl)sulfonyl]phenyl}-1-benzofuran-2-sulfonamide] | 83 | 2130
Nc1ccc(CS(=O)(=O)c2ccc(Cl)cc2NS(=O)(=O)c2cc3ccccc3o2)cc1 [N-{2-[(4-aminobenzyl)sulfonyl]-5-chlorophenyl}-1-benzofuran-2-sulfonamide] | 104 | 90
CC(=O)Nc1nc(CSc2ccc(Cl)cc2NS(=O)(=O)c2cc3ccccc3o2)cs1 [N-{4-[({2-[(1-benzofuran-2-ylsulfonyl)amino]-4-chlorophenyl}thio)methyl]-1,3-thiazol-2-yl}acetamide] | 102 | 848
O=S(=O)(Nc1cc(Cl)ccc1[S+]([O-])Cc1ncc[nH]1)c1cc2ccccc2o1 (stereo not shown) [N-{5-chloro-2-[(1H-imidazol-2-ylmethyl)sulfinyl]phenyl}-1-benzofuran-2-sulfonamide] | 108 | 1900
O=S(=O)(Cc1ncc[nH]1)c1ccc(Cl)cc1NS(=O)(=O)c1cc2ccccc2o1 [N-{5-chloro-2-[(1H-imidazol-2-ylmethyl)sulfonyl]phenyl}-1-benzofuran-2-sulfonamide] | 109 | 1350
O=S(=O)(Nc1cc(Cl)ccc1SCc1ncc[nH]1)c1cc2ccccc2o1 [N-{5-chloro-2-[(1H-imidazol-2-ylmethyl)thio]phenyl}-1-benzofuran-2-sulfonamide] | 93 | 60
O=S(=O)(Nc1cc(Cl)ccc1[S+]([O-])Cc1c[nH]cn1)c1cc2ccccc2o1 (stereo not shown) [N-{5-chloro-2-[(1H-imidazol-4-ylmethyl)sulfinyl]phenyl}-1-benzofuran-2-sulfonamide] | 108 | 296
O=S(=O)(Cc1c[nH]cn1)c1ccc(Cl)cc1NS(=O)(=O)c1cc2ccccc2o1 [N-{5-chloro-2-[(1H-imidazol-4-ylmethyl)sulfonyl]phenyl}-1-benzofuran-2-sulfonamide] | 106 | 81
O=S(=O)(Nc1cc(Cl)ccc1SCc1c[nH]cn1)c1cc2ccccc2o1 [N-{5-chloro-2-[(1H-imidazol-4-ylmethyl)thio]phenyl}-1-benzofuran-2-sulfonamide] | 100 | 10
O=S(=O)(Nc1cc(Cl)ccc1[S+]([O-])Cc1cc[nH]n1)c1cc2ccccc2o1 (stereo not shown) [N-{5-chloro-2-[(1H-pyrazol-3-ylmethyl)sulfinyl]phenyl}-1-benzofuran-2-sulfonamide] | 99 | 634
O=S(=O)(Cc1cc[nH]n1)c1ccc(Cl)cc1NS(=O)(=O)c1cc2ccccc2o1 [N-{5-chloro-2-[(1H-pyrazol-3-ylmethyl)sulfonyl]phenyl}-1-benzofuran-2-sulfonamide] | 102 | 367
O=S(=O)(Nc1cc(Cl)ccc1SCc1cc[nH]n1)c1cc2ccccc2o1 [N-{5-chloro-2-[(1H-pyrazol-3-ylmethyl)thio]phenyl}-1-benzofuran-2-sulfonamide] | 99 | 16
O=[N+]([O-])c1ccccc1C[S+]([O-])c1ccc(Cl)cc1NS(=O)(=O)c1cc2ccccc2o1 (stereo not shown) [N-{5-chloro-2-[(2-nitrobenzyl)sulfinyl]phenyl}-1-benzofuran-2-sulfonamide] | 95 | 75
O=S(=O)(Nc1cc(Cl)ccc1[S+]([O-])CCc1ccccn1)c1cc2ccccc2o1 (stereo not shown) [N-{5-chloro-2-[(2-pyridin-2-ylethyl)sulfinyl]phenyl}-1-benzofuran-2-sulfonamide] | 86 | 153
O=S(=O)(CCc1ccccn1)c1ccc(Cl)cc1NS(=O)(=O)c1cc2ccccc2o1 [N-{5-chloro-2-[(2-pyridin-2-ylethyl)sulfonyl]phenyl}-1-benzofuran-2-sulfonamide] | 93 | 197
O=S(=O)(Nc1cc(Cl)ccc1SCCc1ccccn1)c1cc2ccccc2o1 [N-{5-chloro-2-[(2-pyridin-2-ylethyl)thio]phenyl}-1-benzofuran-2-sulfonamide] | 84 | 713
O=S(=O)(Nc1cc(Cl)ccc1[S+]([O-])Cc1cccc(O)c1)c1cc2ccccc2o1 (stereo not shown) [N-{5-chloro-2-[(3-hydroxybenzyl)sulfinyl]phenyl}-1-benzofuran-2-sulfonamide] | 103 | 112
O=S(=O)(Cc1cccc(O)c1)c1ccc(Cl)cc1NS(=O)(=O)c1cc2ccccc2o1 [N-{5-chloro-2-[(3-hydroxybenzyl)sulfonyl]phenyl}-1-benzofuran-2-sulfonamide] | 96 | 56
O=S(=O)(Nc1cc(Cl)ccc1SCc1cccc(O)c1)c1cc2ccccc2o1 [N-{5-chloro-2-[(3-hydroxybenzyl)thio]phenyl}-1-benzofuran-2-sulfonamide] | 98 | 77
COc1cccc(CSc2ccc(Cl)cc2NS(=O)(=O)c2cc3ccccc3o2)c1 [N-{5-chloro-2-[(3-methoxybenzyl)thio]phenyl}-1-benzofuran-2-sulfonamide] | 85 | 651
O=[N+]([O-])c1cccc(CSc2ccc(Cl)cc2NS(=O)(=O)c2cc3ccccc3o2)c1 [N-{5-chloro-2-[(3-nitrobenzyl)thio]phenyl}-1-benzofuran-2-sulfonamide] | 63 | 
O=[N+]([O-])c1ccc(CS(=O)(=O)c2ccc(Cl)cc2NS(=O)(=O)c2cc3ccccc3o2)cc1 [N-{5-chloro-2-[(4-nitrobenzyl)sulfonyl]phenyl}-1-benzofuran-2-sulfonamide] | 20 | 2160
O=[N+]([O-])c1ccc(CSc2ccc(Cl)cc2NS(=O)(=O)c2cc3ccccc3o2)cc1 [N-{5-chloro-2-[(4-nitrobenzyl)thio]phenyl}-1-benzofuran-2-sulfonamide] | 82 | 147
O=S(=O)(Nc1cc(Cl)ccc1[S+]([O-])Cc1ccccn1)c1cc2ccccc2o1 (stereo not shown) [N-{5-chloro-2-[(pyridin-2-ylmethyl)sulfinyl]phenyl}-1-benzofuran-2-sulfonamide] | 100 | 29
O=S(=O)(Cc1ccccn1)c1ccc(Cl)cc1NS(=O)(=O)c1cc2ccccc2o1 [N-{5-chloro-2-[(pyridin-2-ylmethyl)sulfonyl]phenyl}-1-benzofuran-2-sulfonamide] | 100 | 29
O=S(=O)(Nc1cc(Cl)ccc1SCc1ccccn1)c1cc2ccccc2o1 [N-{5-chloro-2-[(pyridin-2-ylmethyl)thio]phenyl}-1-benzofuran-2-sulfonamide] | 91 | 35
O=S(=O)(Nc1cc(Cl)ccc1[S+]([O-])Cc1cccnc1)c1cc2ccccc2o1 (stereo not shown) [N-{5-chloro-2-[(pyridin-3-ylmethyl)sulfinyl]phenyl}-1-benzofuran-2-sulfonamide] | 100 | 76
